We go through 3 molecules from ChEMBL document CHEMBL1156426, “Structure-based inhibitor design for an enzyme that binds different steroids: a potent inhibitor for human type 5 17beta-hydroxysteroid dehydrogenase” (J Biol Chem, 2007).

Assay [1] has as its target T1, Aldo-keto reductase family 1 member C3 (Homo sapiens, UniProt P42330).
T1 sequence (P42330 whole entry): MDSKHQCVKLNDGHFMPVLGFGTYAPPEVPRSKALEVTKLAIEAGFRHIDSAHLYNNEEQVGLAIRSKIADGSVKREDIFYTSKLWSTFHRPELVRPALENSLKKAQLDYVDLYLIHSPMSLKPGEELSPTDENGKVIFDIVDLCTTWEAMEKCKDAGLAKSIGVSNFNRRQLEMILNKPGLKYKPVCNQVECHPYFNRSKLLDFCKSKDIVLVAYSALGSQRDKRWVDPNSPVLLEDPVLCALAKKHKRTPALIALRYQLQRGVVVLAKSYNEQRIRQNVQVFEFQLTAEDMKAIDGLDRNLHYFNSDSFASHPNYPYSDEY
Nature of the assay: Inhibition of human 17beta HSD5 in HEK cells. The assay is classed as cell-based, HEK293.

Assay [2] concerns the target T1, Aldo-keto reductase family 1 member C3. Nature of the assay: Inhibition of human 17beta HSD5 mediated conversion of testosterone to delta-4-androstene-3,17-dione.

For `COCCOc1cc2c(cc1C#N)[C@H]1CC[C@@]3(C)[C@@H](CC[C@@]34CCC(C)(C)C(=O)O4)[C@@H]1CC2` [EM1396], the IC50 (in general, the concentration that inhibits the measured activity by half) in assay [1] amounted to 13 nM.

Regarding `CC1(C)CC[C@@]2(CC[C@H]3[C@@H]4CCc5cc(C(N)=O)ccc5[C@H]4CC[C@@]32C)OC1=O`, in assay [2], the Ki (commonly the dissociation constant of the complex between target and ligand, obtained from inhibition or displacement) was determined as 6.9 nM. For the same molecule, the IC50 in assay [1] was 3.2 nM.

The molecule `COCCOc1cc2c(cc1OC(N)=O)[C@H]1CC[C@@]3(C)[C@@H](CC[C@@]34CCC(C)(C)C(=O)O4)[C@@H]1CC2` came in with an IC50 in assay [1] of 9.5 nM. This lies in the single-digit nanomolar range.
